Data: patent publication US20040151761A1, “Methods and compositions utilizing astaxanthin” (priority 2003, published 2004)
Entries after “also recorded” stand apart in the source; their conditions may differ.

How the values were obtained:
[1] = Body weight of dogs fed astaxanthin; assay type: in vivo, dog
Protocol: (§1) Female Beagle dogs (9 to 10 mo old; 8.2±0.2 kg body weight; Covance Research Products Inc., Kalamazoo, Mich.) were randomly assigned (n=14/treatment) to be fed 0, 10, 20, or 40 mg astaxanthin (109 g astaxanthin/kg oleoresin concentrate from Haematococcus pluvialis, astraZanthin™, La Haye Laboratories, Redmond, Wash.) daily for 16 weeks. Astaxanthin was incorporated into a commercial basal diet (The Iams Co., Lewisburg, Ohio.) and fed two times daily (200 g food/d). The diet composition was as follows (g/kg): 85.3 moisture, 275.8 protein, 60.7 ash, 115.0 fat, 9.9 Ca, 9.3 P, 21.3 crude fiber, and 18,914 kJ/kg gross energy; the n-6:n-3 fatty acid ratio was 7.9. Dogs were housed in 2×3 m pens (2 dogs/pen) in a temperature (20 to 22° C.) and light-(14 hour light) controlled facility. Body weight was recorded on week 0, 4, 8, and 16. Blood was collected on wk 0, 6 and 12 for assessing immune function. All dogs were vaccinated (Vanguard 5™, Smithkline Beacham, West Chester, Pa.) twice on week 12 and 14 and blood again taken on week 16 to assess post-vaccination immune responses.

[2] = system: cutaneous delayed-type hypersensitivity (DTH); assay: Delayed-type hypersensitivity (skin induration) in dogs; assay type: in vivo, dog
Protocol: Female Beagle dogs (9 to 10 mo old; 8.2±0.2 kg body weight; Covance Research Products Inc., Kalamazoo, Mich.) were randomly assigned (n=14/treatment) to be fed 0, 10, 20, or 40 mg astaxanthin (109 g astaxanthin/kg oleoresin concentrate from Haematococcus pluvialis, astraZanthin™, La Haye Laboratories, Redmond, Wash.) daily for 16 weeks. Astaxanthin was incorporated into a commercial basal diet (The Iams Co., Lewisburg, Ohio.) and fed two times daily (200 g food/d). […] Blood was collected on wk 0, 6 and 12 for assessing immune function. All dogs were vaccinated (Vanguard 5™, Smithkline Beacham, West Chester, Pa.) twice on week 12 and 14 and blood again taken on week 16 to assess post-vaccination immune responses.
On week 12 (before vaccination) and 16 (after vaccination), all dogs were injected intradermally with 100 microliters of (1) saline (8.5 g/L; negative control), (2) an attenuated polyvalent vaccine containing canine distemper virus, adenovirus type-2, parainfluenza virus and parvovirus (undiluted; Vanguard 5™, Smithkline Beacham, West Chester, Pa.), and (3) phytohemagglutinin (PHA, 0.5 g/L) as previously described (Chew et al., 2000) to assess cutaneous delayed-type hypersensitivity (DTH). Skin induration was measured at 0, 24, 48 and 72 hours post-injection.

[3] = system: IgG and IgM; assay: Plasma IgG and IgM in dogs (ELISA); assay type: in vivo, dog
Description: as §1, with “([…]” for “(n=14/treatment) to be fed 0, 10, 20, or 40 mg astaxanthin (109 g astaxanthin/kg oleoresin”
IgG and IgM. Concentrations of IgG (sheep anti-dog IgG; sensitivity=16 micrograms/L) and IgM (goat anti-dog IgM; sensitivity=31 micrograms/L) in plasma were analyzed by ELISA using a commercial kit (Bethyl Lab., Inc., Montgomery, Tex.).

[4] = system: C-reactive protein (CRP); assay: Plasma C-reactive protein in dogs; assay type: in vivo, dog
Protocol: C-Reactive protein. Changes in acute phase proteins were assessed in plasma by measuring the C-reactive protein (CRP) concentrations using horseradish peroxidase-labeled anti-canine CRP in a solid-phase sandwich immunoassay (Tri Delta Diagnostics, Morris Plains, N.J.).

[5] = Plasma astaxanthin in cats fed astaxanthin diets; assay type: in vivo, cat
Protocol: Female domestic short hair cats (8 to 9 months old; 3.2±0.04 kg body weight; Liberty Farms, Waverly, N.Y.) were randomly assigned (n=14/diet) to be fed 0, 1, 5, or 10 mg astaxanthin (109 g astaxanthin/kg oleoresin concentrate from Haematococcus pluvialis, astraZanthin™, La Haye Laboratories, Redmond, Wash.) daily (based on an average intake of 90 g food/day) for 12 weeks. Astaxanthin was incorporated into a commercial basal diet (The Iams Co., Lewisburg, Ohio.) and fed ad libitum. The diet composition was as follows (g/kg): 63.1 moisture, 350.6 protein, 62.7 ash, 213.6 fat, 10.0 Ca, 7.6 P, and 7.1 crude fiber, 21,707 kJ/kg gross energy; the n-6:n-3 fatty acid ratio was 9.9. Cats were housed in a temperature (20 to 22° C.) and light-controlled (14 hour light) facility and body weights were determined at weeks 0, 4, 8 and 12. Blood was collected at week 0 and 8 to assess immune function. To assess the dietary effects of astaxanthin on immune response after an antigenic challenge, all cats were vaccinated (Felocell™, Pfizer, N.Y.) two times (weeks 8 and 10) and blood was collected at week 12 to measure the same immune parameters.

[6] = system: Crandell feline kidney fibroblast cells (CrFK); assay: Natural killer cell cytotoxic activity in cats; assay type: in vivo, cat
Protocol: Natural killer cell cytotoxic activity. Cultures of Crandell feline kidney fibroblast cells (CrFK, ATCC CRL-9761; Crandell et al., 1973) were grown in Dulbecco's Modified Eagles Medium (Sigma, St. Louis, Mo.) with 10% fetal bovine serum, 100 U/mL penicillin, and […] streptomycin sulfate. At 70-90% confluence, cells were trypsinized, washed and adjusted to 2×10^5 cells/mL. One hundred microliters of cell suspension was pipeted into each well of 96-well flat bottom plates (Nunclon, Denmark) and incubated at 37° C. for 8 hours. Ficoll-separated PBMC were adjusted to 1×10^6/mL or 2×10^6/mL and 100 μL of the cell suspensions were added to the CrFK target cells to provide effector:target cell ratios of 5:1 and 10:1. After incubating for 8 hours, 20 μL MTT (5 g/L) were added and the mixture incubated for 4 hours. The supernatant was removed and the formazan resuspended in 100 μL isopropanol. Optical density was measured at 550 nm and the percent of specific cytotoxicity calculated as follows:
% Specific cytotoxicity=1−(ODeffector+target−ODeffector)/ODtarget×100.

[7] = system: mouse splenocytes; conditions: cultured cell assay (Jyonouchi et al.); cited from earlier work
[8] = system: splenocyte; conditions: mice (Chew et al., 1999); cited from earlier work

**Q.** What does the source list for `CC1=C(/C=C/C(C)=C/C=C/C(C)=C/C=C/C=C(C)/C=C/C=C(C)/C=C/C2=C(C)C(=O)C(O)CC2(C)C)C(C)(C)CC(O)C1=O` (stereo not drawn) [astaxanthin, 3,3′-dihydroxy-beta, beta-carotene-4,4′-dione]?
**A.** influence of diet on body weight ([1]; dogs fed 0, 10, 20 or 40 mg daily, throughout 16 wk study): did not significantly influence body weight; body weight averaged ([1]; wk 16, average over all diets): 8.57 ± 0.11 kg; time after intradermal challenge at which skin induration response was observed ([2]; before vaccination): 48 h; DTH response to PHA ([2]; nonspecific antigen): No similar response was observed; also recorded: but not to PHA; time after intradermal challenge at which skin induration response was observed ([2]; post-vaccination): 24 h; DTH response compared with other carotenoids previously investigated ([2]; versus β-carotene and lutein in dogs): heightened DTH response; skin induration response to saline, PHA or vaccine ([2]; wk 0 and 8): did not significantly influence; DTH response to intradermal vaccine challenge ([2]; wk 12 (before vaccination), dogs fed 10, 20 and 30 mg (10 to 40 mg)): significant DTH response to vaccine; also recorded: higher DTH response at 38 and 72 h; also recorded: increased delayed-type hypersensitivity (DTH) response; DTH response to intradermal vaccine challenge ([2]; wk 16, after vaccination on wk 12 and 14): observed earlier (at 24 and 38 h); also recorded: similarly enhanced; plasma IgG concentration ([3]; 20 mg, post-vaccination week 16): higher; also recorded: highest concentrations of IgG and IgM; plasma IgG concentration ([3]; 20 mg, week 12): higher; plasma IgM concentration ([3]; 20 mg, week 16): significantly higher IgM concentrations; also recorded: highest concentrations of IgG and IgM; IgG production ([3]; higher (30 mg) dietary astaxanthin): did not produce the same stimulation; plasma C-reactive protein concentrations ([4]; post-vaccination, week 16): decreased plasma C-reactive protein concentrations; also recorded: lower concentrations of circulating CRP; plasma CRP concentrations between diets ([4]; through week 12): similar; plasma CRP concentration averaged ([4]; through week 12, average over diets): 4.48 mg/L; plasma astaxanthin concentrations ([5]; at week 8): rapid initial increase; plasma astaxanthin concentrations ([5]; cats fed 1, 5 or 10 mg daily): generally a dose-dependent increase; also recorded: dose-related increase in plasma astaxanthin; plasma astaxanthin ([5]; week 8 through week 12): continued to increase, albeit more gradually; NK cell cytotoxic activity ([6]; week 8): no dietary treatment differences; NK cell cytotoxic activity ([6]; week 12, effector:target ratio 5:1, 5 and 10 mg): stimulated NK cell cytotoxic activity; NK cell cytotoxic activity ([6]; week 12, effector:target ratio 10:1, 1, 5 and 10 mg): stimulated NK cell cytotoxic activity; in vitro antibody response of mouse splenocytes to T-dependent antigens [7]: increase in vitro antibody response; mitogen-induced splenocyte proliferation [8]: enhance mitogen-induced splenocyte proliferation
